Test results as given in patent US8192999B2, “Method for the identification of macromolecule targets of analytes” (priority 2005, dated 2012).

Test system: E. coli proteins
Assay: Non-specific binding of MTX to proteins of E. coli cell lysate (HPLC co-fractionation)
Details: MTX-spiked E. coli extract; FIG. 9

Question: Which “non-specific binding of the drug to E. coli proteins” value does the source give for `CN(Cc1cnc2nc(N)nc(N)c2n1)c1ccc(C(=O)N[C@@H](CCC(=O)O)C(=O)O)cc1` [MTX, methotrexate] here?
Answer: no non-specific binding of the drug to any E. coli proteins was detected
